Results as given in ChEMBL document CHEMBL1132783, “Dibasic inhibitors of human mast cell tryptase. Part 1: synthesis and optimization of a novel class of inhibitors” (Bioorg Med Chem Lett, 2000).

Experiments:
Plasminogen = Plasminogen (Homo sapiens, UniProt P00747); experiment: Inhibitory potency against plasmin
Tryptase beta-1 = Tryptase beta-1 (Homo sapiens, UniProt Q15661); experiment: Inhibitory potency against tryptase
Prothrombin = Prothrombin (Homo sapiens, UniProt P00734); experiment: Inhibitory potency against thrombin
Serine protease 1 = Serine protease 1 (Homo sapiens, UniProt P07477); experiment: Inhibitory potency against trypsin
Chain of Serine protease 1 (P07477 whole entry): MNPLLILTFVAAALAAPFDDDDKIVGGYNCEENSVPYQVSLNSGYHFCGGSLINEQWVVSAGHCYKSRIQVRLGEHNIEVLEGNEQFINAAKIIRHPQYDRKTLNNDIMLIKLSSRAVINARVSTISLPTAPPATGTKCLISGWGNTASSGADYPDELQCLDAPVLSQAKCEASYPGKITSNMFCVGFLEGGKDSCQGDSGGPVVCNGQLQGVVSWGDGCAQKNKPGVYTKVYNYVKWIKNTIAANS

Chain of Plasminogen (P00747 97-580 limits assumed): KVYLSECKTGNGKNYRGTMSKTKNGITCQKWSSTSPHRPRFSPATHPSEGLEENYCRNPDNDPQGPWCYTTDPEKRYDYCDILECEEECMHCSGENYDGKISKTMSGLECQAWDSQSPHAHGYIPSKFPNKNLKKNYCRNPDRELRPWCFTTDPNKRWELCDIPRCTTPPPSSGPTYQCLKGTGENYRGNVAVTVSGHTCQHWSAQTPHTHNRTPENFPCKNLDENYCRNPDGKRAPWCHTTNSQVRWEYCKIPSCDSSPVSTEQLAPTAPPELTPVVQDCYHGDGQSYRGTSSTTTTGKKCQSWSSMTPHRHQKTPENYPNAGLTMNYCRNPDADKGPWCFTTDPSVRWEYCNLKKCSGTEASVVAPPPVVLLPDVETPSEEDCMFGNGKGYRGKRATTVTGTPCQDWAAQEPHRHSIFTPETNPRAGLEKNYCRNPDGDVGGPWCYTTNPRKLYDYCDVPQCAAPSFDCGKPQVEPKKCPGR
Chain of Plasminogen (P00747 581-810 limits assumed): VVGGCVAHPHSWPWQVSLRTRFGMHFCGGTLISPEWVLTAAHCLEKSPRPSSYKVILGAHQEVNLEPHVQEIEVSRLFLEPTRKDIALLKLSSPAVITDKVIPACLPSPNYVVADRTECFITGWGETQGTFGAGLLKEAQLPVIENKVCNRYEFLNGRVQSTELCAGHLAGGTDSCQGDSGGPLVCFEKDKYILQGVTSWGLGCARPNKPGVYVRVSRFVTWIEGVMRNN
Chain of Tryptase beta-1 (Q15661 whole entry): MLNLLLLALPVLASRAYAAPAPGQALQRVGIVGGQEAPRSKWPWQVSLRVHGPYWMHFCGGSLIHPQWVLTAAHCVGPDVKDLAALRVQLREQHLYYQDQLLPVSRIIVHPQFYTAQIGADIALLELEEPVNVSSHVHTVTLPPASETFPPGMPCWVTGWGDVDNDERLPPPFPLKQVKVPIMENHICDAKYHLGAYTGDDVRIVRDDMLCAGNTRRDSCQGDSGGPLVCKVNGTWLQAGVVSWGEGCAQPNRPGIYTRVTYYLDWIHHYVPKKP

SMILES	Ki (Plasminogen) [µM]	Ki (Tryptase beta-1) [µM]	Ki (Prothrombin) [µM]	Ki (Serine protease 1) [µM]
NCc1ccc(CNC(=O)CCCC(=O)NCc2ccc(CNC(=O)CCCC(=O)NCc3ccc(CN)cc3)cc2)cc1	> 1000	0.009	> 1000	274
C[C@H](NC(=O)OCc1ccc(COC(=O)N[C@@H](C)C(=O)NCc2ccc(CN)cc2)cc1)C(=O)NCc1ccc(CN)cc1	83	0.366	> 1000	273
CN(CC(=O)NCc1ccc(CN)cc1)C(=O)OCc1ccc(COC(=O)N(C)CC(=O)NCc2ccc(CN)cc2)cc1	> 230	0.005	> 1000	50
CN(Cc1ccc(CN)cc1)C(=O)CCC(=O)NCc1ccc(CNC(=O)CCC(=O)N(C)Cc2ccc(CN)cc2)cc1	> 1000	2	> 1000	> 1000
O=C(NCc1ccccc1)N1CCN(C(=O)O[C@H]2CCC[C@@H](OC(=O)N3CCN(C(=O)NCc4ccccc4)CC3)CCC2)CC1	> 1000	101	14	44
N=C(N)Nc1ccc(CNC(=O)CCC(=O)NCc2ccc(CNC(=O)CCC(=O)NCc3ccc(NC(=N)N)cc3)cc2)cc1	> 1000	0.04	> 1000	146
NC(N)=Nc1ccc(CNC(=O)NCC(=O)O[C@H]2CCC[C@@H](OC(=O)CNC(=O)NCc3ccc(N=C(N)N)cc3)CCC2)cc1	> 1000	0.002	> 1000	78
N=C(N)Nc1ccc(CNC(=O)CC(=O)NCc2ccc(CNC(=O)CC(=O)NCc3ccc(NC(=N)N)cc3)cc2)cc1	> 1000	0.68	> 1000	73
NCc1ccc(CNC(=O)CC(=O)NCc2ccc(CNC(=O)CC(=O)NCc3ccc(CN)cc3)cc2)cc1	> 1000	0.15	> 1000	317
NC(N)=Nc1ccc(CNC(=O)CNC(=O)OCc2ccc(COC(=O)NCC(=O)NCc3ccc(N=C(N)N)cc3)cc2)cc1	> 1000	0.01	> 1000	56
N=C(N)Nc1ccc(CNC(=O)CCNC(=O)OCc2ccc(COC(=O)NCCC(=O)NCc3ccc(NC(=N)N)cc3)cc2)cc1	> 1000	0.09	> 1000	72
CN(Cc1ccc(CN(C)C(=O)CCC(=O)NCc2ccc(CN)cc2)cc1)C(=O)CCC(=O)NCc1ccc(CN)cc1	214	0.005	> 1000	162
N=C(N)Nc1ccc(CNC(=O)N2CCN(C(=O)O[C@H]3CCC[C@@H](OC(=O)N4CCN(C(=O)NCc5ccc(NC(=N)N)cc5)CC4)CCC3)CC2)cc1	494		435	39
NCc1ccc(CNC(=O)CCC(=O)NCc2ccc(CNC(=O)CCC(=O)NCc3ccc(CN)cc3)cc2)cc1	769	0.003	> 1000	237
C[C@@H](NC(=O)OCc1ccc(COC(=O)N[C@H](C)C(=O)NCc2ccc(CN)cc2)cc1)C(=O)NCc1ccc(CN)cc1	> 1000	0.031	> 1000	38
NCc1ccc(CNC(=O)CNC(=O)OCc2ccc(COC(=O)NCC(=O)NCc3ccc(CN)cc3)cc2)cc1	> 1000	0.0006	> 1000	
N=C(N)Nc1ccc(CNC(=O)CCCC(=O)NCc2ccc(CNC(=O)CCCC(=O)NCc3ccc(NC(=N)N)cc3)cc2)cc1	> 1000	0.1	492	70
N=C(N)Nc1ccc(CNC(=O)N2CCN(C(=O)O[C@H]3CCC[C@@H](OC(=O)N4CCN(C(=O)NCc5ccccc5)CC4)CCC3)CC2)cc1	> 1000	15	> 1000	182
